{"source": "patent US20220105096A1", "about": "“INHIBITORS OF HUMAN IMMUNODEFICIENCY VIRUS REPLICATION” (ViiV HEALTHCARE UK (NO.5) LIMITED, priority 2019, published 2022)", "key": {"[1]": {"test_system": "CYP2B6", "experiment": "Cytochrome P450 (CYP2B6) induction in cryopreserved human hepatocytes", "format": "cell-based", "conditions": "hepatocytes from three individual donors, 0.12 to 30 μM, 48 hours", "experimental": "Following the guidance of the FDA (“In Vitro Metabolism- and Transporter-Mediated Drug-Drug Interaction Studies Guidance for Industry”), the potential of Example 1 and Example 60.2 to induce CYP2B6 expression was tested using hepatocytes from the same three individual donors (rather than pooled donors), and changes in enzyme mRNA levels were evaluated using the “fold-change method”. In this test a fold-change in mRNA levels less than 2-fold is considered a negative finding, while a change ≥2-fold is considered a positive finding.\nCompounds were tested in a CYP induction assay using inducible cryopreserved human primary hepatocytes from three donors to determine the potential to cause induction (as measured by an increase in mRNA transcription) of CYP2B6. […] At the end of the incubation, the integrity of cell monolayers, cell density and viability were evaluated to assess cytotoxicity effects. […] It was then used in reverse transcription polymerase chain reactions (RT-PCR) to quantify the amount of specific mRNA species encoding human CYP3A4, CYP2B6, and CYP1A2 genes.\nThe induction potential of test compounds and controls was compared to known CYP2B6 inducer Phenobarbital (1000 μM). The results of this assay are expressed as fold induction. […] The cytotoxicity was also assessed in parallel to avoid false positive CYP induction results due to cytotoxicity. […]"}, "[2]": {"experiment": "Metabolism in dog liver microsomes", "format": "in vitro ADME", "experimental": "Liver microsomes from human, rat dog and monkey were thawed and diluted to a final concentration of 1 mg/mL in 100 mM potassium phosphate buffer (pH 7.4). Test compounds and controls were prepared at 100× final concentration of 1 μM in 1:1 acetonitrile:water (v/v) and aliquoted into microsomal mixture. The mixture was preincubated at 37° C. in a shaking water bath for 10 minutes. The incubations were performed in duplicate. Three controls were included in the incubations; warfarin, phenacetin, and verapamil. After the preincubation, the reaction was initiated with NADPH at a final concentration of 1 mM. At 0, 5, 15, 30, 45 and 60 minutes, 25 μL of sample was removed and quenched with 300 μL of acetonitrile containing internal standard (Telmisartan). The samples were vortexed for 5 minutes at 1200 rpm and then centrifuged at 4000 rpm for 10 min. A 100 μL aliquot of supernatant was diluted three-fold with water and injected on an Exion LC 4500 Triple Quad LC-MS/MS system. Results were reported as a percentage of parent remaining and was calculated from peak area ratios of test compound remaining after at each time point and compared to time zero incubation."}, "[3]": {"test_system": "recombinant NL4-3 virus", "experiment": "Antiviral potency in MT-2 cells infected with recombinant NL4-3 Renilla luciferase virus", "format": "cell-based, HIV", "conditions": "Human immunodeficiency virus 1, NL43, MT2", "experimental": "MT-2 cells, 293T cells and the proviral DNA clone of NL4-3 virus were obtained from the NIH AIDS Research and Reference Reagent Program. MT-2 cells were propagated in RPMI 1640 media supplemented with 10% heat inactivated fetal bovine serum (FBS), […]. The 293T cells were propagated in DMEM media supplemented with 10% heat inactivated FBS, […] penicillin G and […] streptomycin. A recombinant NL4-3 proviral clone, in which a section of the nef gene was replaced with the Renilla luciferase gene, was used to make the reference virus used in these studies. The recombinant virus was prepared through transfection of the recombinant NL4-3 proviral clone into 293T cells using Transit-293 Transfection Reagent from Mirus Bio LLC (Madison, Wis.). Supernatant was harvested after 2-3 days and the amount of virus present was titered in MT-2 cells using luciferase enzyme activity as a marker by measuring luciferase enzyme activity. Luciferase was quantitated using the EnduRen Live Cell Substrate from Promega (Madison, Wis.). Antiviral activities of compounds toward the recombinant virus were quantified by measuring luciferase activity in MT-2 cells infected for 4-5 days with the recombinant virus in the presence of serial dilutions of the compound. […]"}, "[4]": {"experiment": "Cytotoxicity in uninfected MT2 cells, XTT colorimetric assay", "format": "cell-based", "conditions": "human, day 4, XTT, read-out: cytotoxic CC50", "experimental": "Compound cytotoxicity and the corresponding CC50 values were determined using the same protocol as described in the antiviral assay except that uninfected cells were used. Cytotoxicity was assessed on day 4 in uninfected MT2 cells by using an XTT (2,3-bis[2-Methoxy-4-nitro-5-sulfophenyl]-2H-tetrazolium-5-carboxanilide inner salt)-based colorimetric assay (Sigma-Aldrich, St Louis, Mo.)."}}}
{"smiles": "Cn1nc(NS(C)(=O)=O)c2c(Cl)ccc(-n3c([C@H](Cc4cc(F)cc(F)c4)NC(=O)Cn4nc(C(F)F)c5c4C(F)(F)[C@@H]4C[C@H]54)nc4nc(OCCC(C)(F)F)ccc4c3=O)c21", "note": "(atropisomer, axis not shown; (P)) [Example 1, N—((S)-1-((3P)-3-(4-chloro-1-methyl-3-(methylsulfonamido)-1H-indazol-7-yl)-7-(3,3-difluorobutoxy)-4-oxo-3,4-dihydropyrido[2,3-d]pyrimidin-2-yl)-2-(3,5-difluorophenyl)ethyl)-2-((3bS,4aR)-3-(difluoromethyl)-5,5-difluoro-3b,4,4a,5-tetrahydro-1H-cyclopropa[3,4]cyclopenta[1,2-c]pyrazol-1-yl)acetamide]", "values": [{"measurement": "CYP2B6 induction finding (mRNA fold-change method)", "setting": "[1]", "result": "negative finding (a fold-change in mRNA levels less than 2-fold is considered a negative finding)"}, {"measurement": "stability in dog liver microsomes relative to Example 60.2", "setting": "[2]; Example 1 versus Example 60.2", "result": "at least seven times more stable"}, {"measurement": "half-life at 1 μM", "setting": "[2]; dog, liver microsomes, pH 7.4, 1 μM compound, 1 mg/mL microsomes, NADPH, 37° C., read-out: Dog liver microsome T1/2", "result": "> 2", "unit": "h"}, {"measurement": "EC50", "setting": "[3]", "result": "0.019 ± 0.006", "unit": "nM"}, {"measurement": "CC50 at 4 days", "setting": "[4]", "result": "> 10000", "unit": "nM"}]}
